The assay deals with Akt. The assay is described as follows: Akt Lum. It is filed as cell-based.

As for `Nc1nc2c(c(-c3c(Cl)cc(Cl)cc3OCCn3cc(Cl)cn3)n1)CN(C(=O)NC1CC1)C2` [Example 2, 2-amino-N-cyclopropyl-4-{2,4-dichloro-6-[2-(4-chloro-1H-pyrazol-1-yl)ethoxy]phenyl}-5,7-dihydro-6H-pyrrolo[3,4-d]pyrimidine-6-carboxamide], half-maximal inhibition (IC50) required 104 nM.
Then `Cc1cc(Cl)cc(OCCn2cccn2)c1-c1nc(N)nc2c1CN(C(=O)NC13CC(C1)C3)C2` [Example 3], with 52.5 nM.
As for `Cc1cc(Cl)cc(OCCn2cc(F)cn2)c1-c1nc(N)nc2c1CN(C(=O)NC13CC(C1)C3)C2` [Example 7, 2-amino-N-bicyclo[1.1.1]pent-1-yl-4-{4-chloro-2-[2-(4-fluoro-1H-pyrazol-1-yl)ethoxy]-6-methylphenyl}-5,7-dihydro-6H-pyrrolo[3,4-d]pyrimidine-6-carboxamide], the figure is 20.9 nM; as for `Nc1nc2c(c(-c3c(Cl)cc(Cl)cc3OCCn3cc(F)cn3)n1)CN(C(=O)NC1CC1)C2` [Example 10, 2-amino-N-cyclopropyl-4-{2,4-dichloro-6-[2-(4-fluoro-1H-pyrazol-1-yl)ethoxy]phenyl}-5,7-dihydro-6H-pyrrolo[3,4-d]pyrimidine-6-carboxamide], 111 nM.
The compound `CC(F)(F)CNC(=O)N1Cc2nc(N)nc(-c3c(Cl)cc(Cl)cc3OCCn3cc(C#N)cn3)c2C1` [Example 11, 2-amino-4-{2,4-dichloro-6-[2-(4-cyano-1H-pyrazol-1-yl)ethoxy]phenyl}-N-(2,2-difluoropropyl)-5,7-dihydro-6H-pyrrolo[3,4-d]pyrimidine-6-carboxamide] gave an IC50 of 2550 nM.
Then `Nc1nc2c(c(-c3c(Cl)cc(Cl)cc3OCCn3cc(Br)cn3)n1)CN(C(=O)NC1CC1)C2` [Example 12, 2-amino-4-{2-[2-(4-bromo-1H-pyrazol-1-yl)ethoxy]-4,6-dichlorophenyl}-N-cyclopropyl-5,7-dihydro-6H-pyrrolo[3,4-d]pyrimidine-6-carboxamide], with 175 nM; and `Nc1nc2c(c(-c3c(Cl)cc(Cl)cc3OCCn3ccc(C(F)(F)F)n3)n1)CN(C(=O)NC1CC1)C2` [Example 13, 2-amino-N-cyclopropyl-4-(2,4-dichloro-6-{2-[3-(trifluoromethyl)-1H-pyrazol-1-yl]ethoxy}phenyl)-5,7-dihydro-6H-pyrrolo[3,4-d]pyrimidine-6-carboxamide], with 660 nM.
On to `Nc1nc2c(c(-c3c(Cl)cc(Cl)cc3OCCn3nccc3C(F)(F)F)n1)CN(C(=O)NC1CC1)C2` [Example 14, 2-amino-N-cyclopropyl-4-(2,4-dichloro-6-{2-[5-(trifluoromethyl)-1H-pyrazol-1-yl]ethoxy}phenyl)-5,7-dihydro-6H-pyrrolo[3,4-d]pyrimidine-6-carboxamide], for which the midpoint of inhibition, the IC50, lay at 6690 nM.
As to `Cc1cc(C(F)(F)F)n(CCOc2cc(Cl)cc(Cl)c2-c2nc(N)nc3c2CN(C(=O)NC2CC2)C3)n1` [Example 15, 2-amino-N-cyclopropyl-4-(2,4-dichloro-6-{2-[3-methyl-5-(trifluoromethyl)-1H-pyrazol-1-yl]ethoxy}phenyl)-5,7-dihydro-6H-pyrrolo[3,4-d]pyrimidine-6-carboxamide], half-maximal inhibition (IC50) was put at 18300 nM.
Turning to `Cc1cc(C(F)(F)F)nn1CCOc1cc(Cl)cc(Cl)c1-c1nc(N)nc2c1CN(C(=O)NC1CC1)C2` [Example 16, 2-amino-N-cyclopropyl-4-(2,4-dichloro-6-{2-[5-methyl-3-(trifluoromethyl)-1H-pyrazol-1-yl]ethoxy}phenyl)-5,7-dihydro-6H-pyrrolo[3,4-d]pyrimidine-6-carboxamide], the 50% inhibitory concentration (IC50) is 9960 nM.

(Values after patent US8080556B2, “2-amino pyrimidine compounds as potent HSP-90 inhibitors” (Pfizer Inc., priority 2008, dated 2011).)
